Test results published in EP1333824B1, “TREATMENT OF SEXUAL DYSFUNCTION WITH BOMBESIN RECEPTOR ANTAGONISTS” (Warner-Lambert Company LLC, priority 2000, dated 2002).

Legend:
[1] = system: Ovariectomised adult female Sprague Dawley rats; assay: Female rat sexual proceptivity test (time investigating male vs female stimulus); type: in vivo
Experimental: Ovariectomised adult female Sprague Dawley rats (180-200g, from Charles River) were housed in groups of 6 in a reversed lighting system of 12h light:dark (lights off 7.00-19.00h). Two weeks after ovariectomy they were used for sexual activity tests. The experiments started at least 5h into the dark period.
Tests were carried out in a circular arena of 90cm diameter, surrounded by a 30cm high wall. Two small cages with wire-mesh front (15x15cm) are fixed into the wall such that the front of the cage is «flush» with the wall and the 2 cages are opposite each other. They contained two stimuli animals: an intact sexually experienced male and a receptive female (ovariectomised, primed with 5µg oestradiol benzoate dissolved in corn oil and injected subcutaneously 48 hours before the test and with 0.5 mg of progesterone four hours before the test). Sexually naive test and control animals were used. Forty eight hours before the tests, both the test and control animals were primed with 5µg oestradiol benzoate. For animals used as positive controls, progesterone (0.5mg/0.1ml) was dissolved in corn oil and administered subcutaneously (s.c.), 4h before the test. Test and control animals were introduced one at a time for 10 minute periods into the arena. During the 10min test, the time that the test or positive control animal spent investigating each stimulus animal was noted. The arena was thoroughly cleaned between animals. The position of the male/female stimuli boxes was randomised between animals, in order to avoid place preference. The difference in the percentage of time spent investigating the male minus the female stimuli was calculated, out of the total time spent investigating stimuli animals. […]
Ovariectomised adult female Sprague Dawley rats (180-200g) were housed in groups of 5 in a reversed lighting system of 12h light:dark (lights off 5.00-17.00h). They were used for the experiments at least two weeks after ovariectomy. Forty eight hours before tests, the animals were primed with oestradiol benzoate (5µg/0.1ml in corn oil, s.c.). On day 1, progesterone (0.5mg/0.1ml, in corn oil, s.c.) was administered to one of the groups 4h before tests, as a positive control. […] The test lasted 10 minutes and was carried out as described before. The difference in the percentage of time spent investigating the male minus the female stimuli was calculated, out of the total time spent investigating stimuli animals. Animals were submitted to a test on day 1 and on day 15. […] On day 15 the test took place again, as described for day 1. […]

[2] = system: Female New Zealand rabbits; assay: Pelvic nerve-stimulated female genital blood flow, anaesthetised rabbit model of sexual arousal; type: in vivo
Experimental: Female New Zealand rabbits (~2.5kg) were pre-medicated with a combination of Medetomidine (Domitor®) 0.5ml/kg i.m., and Ketamine (Vetalar®) 0.25ml/kg i.m. whilst maintaining oxygen intake via a face mask. The rabbits were tracheotomised using a Portex™ uncuffed endotracheal tube 3 ID., connected to ventilator and maintained at a ventilation rate of 30-40 breaths per minute, with an approximate tidal volume of 18-20 ml, and a maximum airway pressure of 10 cm H2O. Anaesthesia was then switched to Isoflurane and ventilation continued with O2 at 21/min. The right marginal ear vein was cannulated using a 23G or 24G catheter, and Lactated Ringer solution perfused at 0.5ml/min. The rabbit was maintained at 3% Isoflurane during invasive surgery, dropping to 2% for maintenance anaesthesia.
The left groin area of the rabbit was shaved and a vertical incision was made approximately 5cm in length along the thigh. The femoral vein and artery were exposed, isolated and then cannulated with a PVC catheter (17G) for the infusion of drugs and compounds. Cannulation was repeated for the femoral artery, inserting the catheter to a depth of 10cm to ensure that the catheter reached the abdominal aorta. This arterial catheter was linked to a Gould system to record blood pressure. Samples for blood gas analysis were also taken via the arterial catheter. Systolic and diastolic pressures were measured, and the mean arterial pressure calculated using the formula (diastolic x2 + systolic) ö3. Heart rate was measured via the pulse oxymeter and Po-ne-mah data acquisition software system (Ponemah Physiology Platform, Gould Instrument Systems Inc). A ventral midline incision was made into the abdominal cavity. The incision was about 5cm in length just above the pubis. The fat and muscle was bluntly dissected away to reveal the hypogastric nerve which runs down the body cavity. It was essential to keep close to the side curve of the pubis wall in order to avoid damaging the femoral vein and artery which lie above the pubis. The sciatic and pelvic nerves lie deeper and were located after further dissection on the dorsal side of the rabbit. Once the sciatic nerve is identified, the pelvic nerve was easily located. The term pelvic nerve is loosely applied; anatomy books on the subject fail to identify the nerves in sufficient detail. However, stimulation of the nerve causes an increase in vaginal and clitoral blood flow, and innervation of the pelvic region. The pelvic nerve was freed away from surrounding tissue and a Harvard bipolar stimulating electrode was placed around the nerve. […] A frequency response curve was determined at the start of each experiment in order to determine the optimum frequency to use as a sub-maximal response, normally 4Hz. […]

## COc1ccc(C2(CNC(=O)[C@](C)(Cc3c[nH]c4ccccc34)NC(=O)Nc3ccc([N+](=O)[O-])cc3)CCCCC2)nc1 [Compound (1), (S) 3-(1H-Indol-3-yl)-N-[1-(5-methoxy-pyridin-2-yl)-cyclohexyl-methyl]-2-methyl-2-[3-(4-nitro-phenyl)-ureido]-propionamide]
[1]; Example 1, i.p., dose-dependent 3mg/kg-10mg/kg, 1h before tests, vs vehicle
  percentage of time spent investigating the male stimulus: increased the percentage of time spent investigating the male stimulus
[1]; Example 3, Compound (1) 15mg/kg i.p. 1h before test, progesterone 0.5mg/0.1ml s.c. 4h before, vs vehicle, P<0.01
  proceptivity, day 1: stimulatory effect on proceptivity
[1]; Example 3, repeated daily administration 15mg/kg i.p. over 15 days
  body weight or general behaviour: no changes in body weight or general behaviour
[1]; Example 4, i.c.v., 3-30µg/rat, 10min before tests
  MED (increase in percentage of time spent investigating the male stimulus): 10 µg
[1]; Example 4, i.c.v., dose-dependent 3-30µg/rat, 10min before tests
  percentage of time spent investigating the male stimulus: increased the percentage of time spent investigating the male stimulus
[1]; Example 5, Compound (1) 15mg/kg i.p. 1h before i.c.v. NMB 100ng, blockade not total at this dose
  antagonism of the inhibitory effect of NMB on proceptivity: prevented the inhibitory effect of NMB
[2]; 15mg/kg sc
  basal genital blood flow in the absence of PNS: no effect
[2]; 15mg/kg sc in 50% β-cyclodextrin in saline
  pelvic-nerve stimulated (PNS) increases in genital (vaginal and clitoral) blood flow: potent enhancer
